Test results as given in ChEMBL document CHEMBL2401622, “Synthesis and in vitro evaluation of [18F]BMS-754807: a potential PET ligand for IGF-1R” (Bioorg Med Chem Lett, 2013).

Key:
Details in all cases: 0.0001 µM
[1] = Drug uptake in human breast tumor at 0.1 nM after 1 hr by phosphor imager autoradiography; assay type: ADME, tissue-based
[2] = Drug uptake in human grade 4 glioblastoma at 0.1 nM after 1 hr by phosphor imager autoradiography; assay type: ADME
[3] = Drug uptake in human pancreatic tumor at 0.1 nM after 1 hr by phosphor imager autoradiography; assay type: ADME

Measured: Drug uptake

C[C@@]1(C(=O)Nc2ccc([18F])nc2)CCCN1c1nc(Nc2cc(C3CC3)[nH]n2)c2cccn2n1
Active: all assays above
